Molecules are shown by their SMILES. Where a SMILES comes first, the peptide text is derived from it. Bridges are numbered along the chain shown (N, C = ends). [ ]: non-standard residue; d: D form. Nle = CCCC[C@H](N)C(=O)O

In the assay the target is T1, recombinant human VEGF165 (Homo sapiens, UniProt P15692).
T1 sequence (P15692 27-191 isoform P15692-4): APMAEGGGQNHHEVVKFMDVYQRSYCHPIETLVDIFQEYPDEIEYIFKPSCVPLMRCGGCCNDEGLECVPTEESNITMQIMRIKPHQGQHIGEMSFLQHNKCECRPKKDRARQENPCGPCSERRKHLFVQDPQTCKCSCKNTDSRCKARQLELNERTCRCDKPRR
The assay can be described thus: VEGF peptide binding assay (competition ELISA, VEGF165 binding to coated VEGFR2/Fc). As to the method:
High-binding half-well 96-well plates (Costar #3690) were coated with recombinant human VEGFR2/Fc (50 ng/well) in 50 μl PBS, and incubated at 4° C. overnight. After washing the plates three times with 1× washing buffer (KPL Cat#50-65-00) and blocking with Superblock (Scytek #AAA500) at room temperature (RT) for 1 hour, VEGF-peptides of the invention were serially diluted (concentrations: 0.128-10,000 nM) in the presence of 25 ng/ml of recombinant human VEGF165 in […] Superblock, and were then added to the 96-well plates and incubated at RT for 1 hour. Peptides of the invention tested in this fashion were all capped at the amino terminus with a C(O)CH3 group and at the carboxyl terminus with a NH2 group. The plates were then washed three times with washing buffer, and a diluted (1:500) biotinylated anti-human VEGF antibody (R&D systems, Cat# BAF293) was added and incubated at RT for 2 hours. After washing the plates, streptavidin HRP conjugate (1:200 in Superblock) (R&D systems, Cat# DY998) was added to detect the bound anti-VEGF antibody, followed by addition of tetramethylbenzidine (TMB) substrate (Pierce, Cat#34021) for color development. The reaction was stopped with 2 M H2SO4. OD450 was measured using SpectraMax (Molecular Device) with a correction wavelength of 540 nm. The data were analyzed using Prism software. OD450 values were plotted as a function of the concentrations of the VEGF peptides. IC50 values, indicative of the potency of the VEGF peptides to inhibit VEGF-VEGFR2 interaction, were obtained using a sigmoid dose-response curve fit in Prism.
Turning to `CC[C@H](C)[C@@H]1NC(=O)[C@H](CC(=O)O)NC(=O)[C@@H](NC(=O)[C@H](CC(N)=O)NC(=O)[C@@H]2CCCN2C(=O)[C@H](CCC(=O)O)NC(=O)[C@@H](NC(C)=O)C(C)C)CSSC[C@@H](C(=O)N[C@@H](Cc2ccccc2)C(=O)N[C@@H](CCC(=O)O)C(=O)N[C@@H](CCCNC(=N)N)C(=O)N[C@@H](CC(C)C)C(=O)N[C@@H](Cc2ccc(O)cc2)C(=O)NCC(=O)NCC(N)=O)NC(=O)[C@H](CCC(=O)O)NC(=O)[C@H](Cc2c[nH]c3ccccc23)NC(=O)[C@H](C(C)C)NC(=O)[C@H](Cc2c[nH]c3ccccc23)NC(=O)[C@H](CCSC)NC(=O)[C@H](C(C)C)NC(=O)[C@H](Cc2c[nH]cn2)NC1=O` [Compound 52, VEPNCDIHVMWVWECFERLYGG] (Ac-VEPNCDIHVMWVWECFERLYGG-NH2; disulfide 5-15 (inferred)), the IC50 amounted to 32.3 nM.

`CC[C@H](C)[C@@H]1NC(=O)[C@H](CC(=O)O)NC(=O)[C@@H](NC(=O)[C@H](CC(N)=O)NC(=O)[C@@H]2CCCN2C(=O)[C@H](CCC(=O)O)NC(=O)[C@@H](NC(C)=O)C(C)C)CSSC[C@@H](C(=O)N[C@@H](Cc2ccccc2)C(=O)N[C@@H](CCC(=O)O)C(=O)N[C@@H](CCCNC(=N)N)C(=O)N[C@@H](CC(C)C)C(=O)N[C@@H](Cc2ccccc2)C(=O)N[C@@H](CCCCN)C(=O)N[C@@H](CCC(=O)O)C(=O)N[C@@H](C)C(N)=O)NC(=O)[C@H](CCC(=O)O)NC(=O)[C@H](Cc2c[nH]c3ccccc23)NC(=O)[C@H](C(C)C)NC(=O)[C@H](Cc2c[nH]c3ccccc23)NC(=O)[C@H](CCSC)NC(=O)[C@H](C(C)C)NC(=O)[C@H](Cc2c[nH]cn2)NC1=O` [Compound 53, VEPNCDIHVMWVWECFERLFKEA] (Ac-VEPNCDIHVMWVWECFERLFKEA-NH2; disulfide 5-15 (inferred)): the IC50 is 31.4 nM.

Take `CCCC[C@H](NC(=O)[C@H](CC(C)C)NC(=O)[C@H](CCCNC(=N)N)NC(=O)[C@H](CCC(=O)O)NC(=O)[C@H](Cc1ccccc1)NC(=O)[C@@H]1CSSC[C@H](NC(=O)[C@H](CC(N)=O)NC(=O)[C@@H]2CCCN2C(=O)[C@H](CCC(=O)O)NC(=O)[C@@H](NC(C)=O)C(C)C)C(=O)N[C@@H](CC(=O)O)C(=O)N[C@@H]([C@@H](C)CC)C(=O)N[C@@H](Cc2c[nH]cn2)C(=O)N[C@@H](C(C)C)C(=O)N[C@@H](CCSC)C(=O)N[C@@H](Cc2c[nH]c3ccccc23)C(=O)N[C@@H](C(C)C)C(=O)N[C@@H](Cc2c[nH]c3ccccc23)C(=O)N[C@@H](CCC(=O)O)C(=O)N1)C(=O)N[C@@H](CCCCN)C(N)=O` [Compound 54, V-E-P-N-C-D-I-H-V-M-W-V-W-E-C-F-E-R-L-(Nle)-K] (Ac-VEPNCDIHVMWVWECFERL[Nle]K-NH2; disulfide 5-15 (inferred)): the IC50 stood at 28.6 nM.

Take `CC[C@H](C)[C@@H]1NC(=O)[C@H](CC(=O)O)NC(=O)[C@@H](NC(=O)[C@H](CC(N)=O)NC(=O)[C@@H]2CCCN2C(=O)[C@H](CCC(=O)O)NC(=O)[C@@H](NC(C)=O)C(C)C)CSSC[C@@H](C(=O)N[C@@H](Cc2ccccc2)C(=O)N[C@@H](CCC(=O)O)C(=O)N[C@@H](CCCNC(=N)N)C(=O)N[C@@H](CC(C)C)C(=O)N[C@@H](Cc2ccc(O)cc2)C(=O)NCC(=O)NCC(=O)N[C@@H](Cc2ccccc2)C(N)=O)NC(=O)[C@H](CCC(=O)O)NC(=O)[C@H](Cc2c[nH]c3ccccc23)NC(=O)[C@H](C(C)C)NC(=O)[C@H](Cc2c[nH]c3ccccc23)NC(=O)[C@H](CCSC)NC(=O)[C@H](C(C)C)NC(=O)[C@H](Cc2c[nH]cn2)NC1=O` [Compound 56, VEPNCDIHVMWVWECFERLYGGF] (Ac-VEPNCDIHVMWVWECFERLYGGF-NH2; disulfide 5-15 (inferred)): the IC50 worked out at 26.2 nM.

The values above are taken from patent US8937048B2, “Anti-angiogenic compounds” (Covx Technologies Ireland, Limited, priority 2008, dated 2015).
